How the values were obtained:
Lolium = assay: Pre-emergence test; assay type: in vivo; details: application rates between 250 and 750 g/ha, scored after three weeks vs untreated control
Protocol: (§1) Solvent: 5 parts by weight of acetone
(§2) Emulsifier: 1 part by weight of alkylaryl polyglycol ether
(§3) To prepare a suitable preparation of active compound, 1 part by weight of active compound is mixed with the stated amount of solvent, the stated amount of emulsifier is added, and the concentrate is diluted with water to the desired concentration.
(§4) Seeds of the test plants are sown in normal soil. After approx. 24 hours, the soil is sprayed with the preparation of active compound in such a way that the desired amounts of active compound are in each case applied per unit area. The concentration of the spray mixture is chosen in such a way that the desired amounts of active compound are in each case applied in 1,000 liters of water/ha.
(§5) After three weeks, the degree of damage to the plants is scored in % damage in comparison with the development of the untreated control.

Solanum = assay: Pre-emergence test; assay type: in vivo; details: application rates between 250 and 750 g/ha, scored after three weeks vs untreated control
Protocol: as §1, §2, §3, §4, §5

Avena fatua = assay: Pre-emergence test; assay type: in vivo; details: application rates between 250 and 750 g/ha, scored after three weeks vs untreated control, 0% = no action, 100% = total destruction
Protocol: as §1, §2, §3, §4, §5

Matricaria = assay: Pre-emergence test; assay type: in vivo; details: application rates between 250 and 750 g/ha, scored after three weeks vs untreated control
Protocol: as §1, §2, §3, §4, §5

wheat = assay: Pre-emergence test (crop tolerance); assay type: in vivo; details: application rates between 250 and 750 g/ha, scored after three weeks vs untreated control
Protocol: as §1, §2, §3, §4, §5

Abutilon = assay: Post-emergence test; assay type: in vivo; details: application rates of 15-750 g/ha, scored after three weeks vs untreated control
Protocol: as §1, §2, §3
(§6) Test plants which have a height of 5-15 cm are sprayed with the preparation of active compound in such a way that the desired amounts of active compound are in each case applied per unit area. The concentration of the spray mixture is chosen in such a way that the amounts of active compound desired in each case are applied in 1,000 liters of water/ha.
as §5

Galium = assay: Post-emergence test; assay type: in vivo; details: application rates of 15-750 g/ha, scored after three weeks vs untreated control
Protocol: as §1, §2, §3, §6, §5

Sinapis = assay: Post-emergence test; assay type: in vivo; details: application rates of 15-750 g/ha, scored after three weeks vs untreated control
Protocol: as §1, §2, §3, §6, §5

| melting point [°C] | SMILES | degree of damage to the plants, Lolium (Lolium) [%] | degree of damage to the plants, Solanum (Solanum) [%] | degree of damage to the plants, Avena fatua (Avena fatua) [%] | degree of damage to the plants, Matricaria (Matricaria) [%] | degree of damage to the plants, wheat (crop plant, tolerated well) (wheat) [%] | degree of damage to the plants, Abutilon (Abutilon) [%] | degree of damage to the plants, Galium (Galium) [%] | degree of damage to the plants, Sinapis (Sinapis) [%] |
| --- | --- | --- | --- | --- | --- | --- | --- | --- | --- |
| 276 | CC(C)(C)C(=O)Nc1ccc(Cl)cc1-n1c(=O)cc(C(F)(F)F)[nH]c1=O | – | – | – | – | – | – | – | – |
| 267 | Cn1c(C(F)(F)F)cc(=O)n(-c2cc(Cl)ccc2NC(=O)C(C)(C)C)c1=O | – | – | – | – | – | – | – | – |
| – | Cn1c(C(F)(F)F)cc(=O)n(-c2ccc(Cl)cc2NC(=O)C(C)(C)C)c1=O [Example 18] | 100 | 100 | 100 | 100 | 0 | 100 | 100 | 100 |
| – | Cn1c(C(F)(F)F)cc(=O)n(-c2ccc(Cl)cc2NC(=O)C2CC2)c1=O [Example 19] | 100 | 100 | 100 | 100 | 0 | 100 | 100 | 100 |
| – | CC(=O)Nc1cc(Cl)ccc1-n1c(=O)cc(C(F)(F)F)n(C)c1=O [Example 20] | 100 | 100 | 100 | 100 | 0 | 100 | 100 | 100 |
| – | Cn1c(C(F)(F)F)cc(=O)n(-c2ccc(Cl)cc2NC(=O)c2ccc(Cl)cc2)c1=O [Example 23] | 100 | 100 | 100 | 100 | 0 | 100 | 100 | 100 |
| – | CC(C)C(=O)Nc1cc(Cl)ccc1-n1c(=O)cc(C(F)(F)F)n(C)c1=O [Example 24] | 100 | 100 | 100 | 100 | 0 | 100 | 100 | 100 |
| – | CCNC(=S)Nc1ccccc1-n1c(=O)n(C2CC2)c(=O)n1C [Example 102] | 100 | 100 | 100 | 100 | 0 | 100 | 100 | 100 |

— US6602826B1, “Heterocyclically substituted aromatic amino compounds with a herbicidal effect” (Bayer Aktiengesellschaft, priority 1997, dated 2003)
